Assays:
CYP3A4 = CYP3A4 (Homo sapiens, UniProt P08684); assay: Study 1 (NCT03628339): effect of tepotinib on midazolam pharmacokinetics in healthy participants
Description: (§1) Study 1 (NCT03628339) and Study 2 (NCT03492437) were both Phase 1, open-label, single sequence, 2-period studies in 12 and 20 healthy participants, respectively (Fig. 1).
In Period 2 (Days 3 to 15), participants received 500 mg tepotinib, QD 30 min after starting a continental breakfast on Days 3 to 12. On Day 13, participants received the final dose of 500 mg tepotinib 30 min after starting a standardized breakfast identical to the one on Day 1. […] Blood samples for trough concentrations of tepotinib were collected on Days 11, 12 and 13.
(§2) Parameters included maximum plasma concentration (Cmax) and time to reach Cmax (Tmax) taken directly from the observed data. Area under the plasma concentration–time curve (AUC) from time 0 to the last measured concentration (AUC0-t), AUC over the dose interval (AUCtau) and AUC extrapolated to infinity (AUC0-∞) were calculated using the mixed log/linear trapezoidal rule. Terminal elimination half-life (t1/2) was calculated as ln(2)/λz where λz is the terminal rate constant. The primary pharmacokinetic parameters in both studies were Cmax, AUC0-t and AUC0-∞.
(§3) A similar statistical approach was taken for both studies. […] Point estimates and CIs were back-transformed to the original scale.

P-gp = P-gp (Homo sapiens, UniProt P08183); assay: Study 2 (NCT03492437): effect of tepotinib on dabigatran pharmacokinetics in healthy participants; assay type: in vivo
Sequence of P-gp (P08183 whole entry): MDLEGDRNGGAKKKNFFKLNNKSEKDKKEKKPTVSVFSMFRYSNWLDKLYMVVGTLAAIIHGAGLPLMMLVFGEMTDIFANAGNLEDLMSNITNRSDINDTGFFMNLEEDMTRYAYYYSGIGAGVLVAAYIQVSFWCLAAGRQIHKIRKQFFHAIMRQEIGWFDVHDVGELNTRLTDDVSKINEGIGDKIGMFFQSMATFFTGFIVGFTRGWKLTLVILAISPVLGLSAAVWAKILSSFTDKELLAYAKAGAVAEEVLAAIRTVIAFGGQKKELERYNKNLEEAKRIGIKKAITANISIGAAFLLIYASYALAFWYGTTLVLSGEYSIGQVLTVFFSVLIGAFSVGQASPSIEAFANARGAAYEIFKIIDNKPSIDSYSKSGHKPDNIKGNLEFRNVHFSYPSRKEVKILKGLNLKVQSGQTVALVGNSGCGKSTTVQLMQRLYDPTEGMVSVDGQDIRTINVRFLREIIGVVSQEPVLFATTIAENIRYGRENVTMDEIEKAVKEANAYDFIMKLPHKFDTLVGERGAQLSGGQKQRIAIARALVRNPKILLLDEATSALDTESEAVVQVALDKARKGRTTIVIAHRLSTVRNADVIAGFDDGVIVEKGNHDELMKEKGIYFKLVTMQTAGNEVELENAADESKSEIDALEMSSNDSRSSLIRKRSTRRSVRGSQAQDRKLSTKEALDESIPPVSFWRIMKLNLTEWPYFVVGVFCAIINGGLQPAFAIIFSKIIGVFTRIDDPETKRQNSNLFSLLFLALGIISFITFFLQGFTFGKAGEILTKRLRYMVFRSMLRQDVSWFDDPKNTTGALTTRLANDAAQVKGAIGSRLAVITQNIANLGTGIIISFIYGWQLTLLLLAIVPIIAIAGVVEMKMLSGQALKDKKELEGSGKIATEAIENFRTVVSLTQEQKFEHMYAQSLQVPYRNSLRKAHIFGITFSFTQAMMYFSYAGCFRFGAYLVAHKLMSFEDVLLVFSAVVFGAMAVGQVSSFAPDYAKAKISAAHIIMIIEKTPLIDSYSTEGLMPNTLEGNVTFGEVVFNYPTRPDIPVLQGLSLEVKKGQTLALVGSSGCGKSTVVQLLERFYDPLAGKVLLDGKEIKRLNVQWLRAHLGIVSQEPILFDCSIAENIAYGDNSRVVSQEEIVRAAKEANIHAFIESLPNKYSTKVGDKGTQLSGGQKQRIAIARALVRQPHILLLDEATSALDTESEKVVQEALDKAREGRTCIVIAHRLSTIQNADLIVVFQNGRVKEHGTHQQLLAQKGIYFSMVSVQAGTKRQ
Description: as §1
In Period 2 (Days 4 to 14), participants received 500 mg tepotinib QD on Days 4 to 11. […] Blood samples for trough concentrations of tepotinib were collected on Days 9 and 10. Further blood samples for tepotinib and its metabolites were also collected up to 24 h postdose on Day 10.
as §2, §3

[1] = midazolam 7.5 mg single oral dose alone, N = 12, geometric mean (geometric CV%)
[2] = midazolam 7.5 mg with tepotinib 500 mg once daily, N = 12, geometric mean (geometric CV%)
[3] = tepotinib + dabigatran versus dabigatran alone

Sequence of CYP3A4 (P08684 whole entry): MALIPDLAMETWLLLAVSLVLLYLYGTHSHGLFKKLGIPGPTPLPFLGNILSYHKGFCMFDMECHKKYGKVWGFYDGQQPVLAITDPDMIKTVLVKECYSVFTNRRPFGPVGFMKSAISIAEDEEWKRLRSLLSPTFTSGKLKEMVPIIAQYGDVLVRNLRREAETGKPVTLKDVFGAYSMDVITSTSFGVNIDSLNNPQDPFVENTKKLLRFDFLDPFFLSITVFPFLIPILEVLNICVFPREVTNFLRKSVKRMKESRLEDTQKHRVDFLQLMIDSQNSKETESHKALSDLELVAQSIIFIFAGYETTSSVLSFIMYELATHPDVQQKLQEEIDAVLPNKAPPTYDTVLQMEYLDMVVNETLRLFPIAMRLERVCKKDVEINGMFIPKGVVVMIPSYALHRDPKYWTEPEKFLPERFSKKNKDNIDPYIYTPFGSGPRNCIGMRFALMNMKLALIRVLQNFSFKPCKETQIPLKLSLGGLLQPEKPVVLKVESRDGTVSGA

In the case of `OCc1ncc2n1-c1ccc(Cl)cc1C(c1ccccc1F)=NC2` [1-hydroxymidazolam], the AUC0-t (CYP3A4; [1]) is reported as 30,589 (24) h*pg/mL, the “AUC0-∞” value (CYP3A4; [1]) is reported as 31,269 (23) h*pg/mL and the Cmax (CYP3A4; [1]) is reported as 14,909 (60) pg/mL. For the same compound, the t1/2 (CYP3A4; [1]) was 6.34 (30) h, the Tmax (CYP3A4; midazolam 7.5 mg single oral dose alone, N = 12, median (min, max)) was 0.500 (0.500, 2.00) h and the AUC0-t (CYP3A4; [2]) was 32,627 (25) h*pg/mL. For the same compound, the “AUC0-∞” value (CYP3A4; [2]) was 33,372 (24) h*pg/mL, the Cmax (CYP3A4; [2]) was 15,852 (35) pg/mL and the t1/2 (CYP3A4; [2]) was 6.90 (27) h. The Tmax (CYP3A4; midazolam 7.5 mg with tepotinib 500 mg once daily, N = 12, median (min, max)) was 0.508 (0.483, 2.00) h, the “MR_AUC (metabolic ratio of 1-hydroxymidazolam AUC0-∞ and midazolam AUC0-∞)” value (CYP3A4; midazolam alone, geometric mean (geometric CV%)) was 0.286 (37) ratio and the “MR_AUC (metabolic ratio of 1-hydroxymidazolam AUC0-∞ and midazolam AUC0-∞)” value (CYP3A4; midazolam with tepotinib 500 mg once daily, geometric mean (geometric CV%)) was 0.302 (34) ratio.
With `[H]/N=C(/N)c1ccc(NCc2nc3cc(C(=O)N(CCC(=O)O)c4ccccn4)ccc3n2C)cc1` [dabigatran] the half-life (P-gp; human, plasma, oral, read-out: Terminal half-life (converted)) was roughly 8 h, the “Exposure increase to dabigatran with tepotinib” value (P-gp; tepotinib 500 mg QD orally) was less than 2 fold and the “Increase of dabigatran area under the curve extrapolated to infinity by tepotinib” value (P-gp; tepotinib 500 mg once daily) was 51%. The “Increase of dabigatran AUC by coadministration with tepotinib” value (P-gp; tepotinib 500 mg once daily, compared to administration alone) was roughly 50%, the “Ratio of Geometric LS Mean (90% CI), AUC0-t” value (P-gp; [3]) was 151.38 (127.35, 179.93) % and the “Ratio of Geometric LS Mean (90% CI), AUC0-∞” value (P-gp; [3]) was 144.70 (122.89, 170.39) %.
`Cc1ncc2n1-c1ccc(Cl)cc1C(c1ccccc1F)=NC2` [midazolam] gave a Tmax (CYP3A4; human, plasma, oral) of 0.508 h, a half-life (CYP3A4; human, plasma, oral) of roughly 5 h and an AUC0-t (CYP3A4; human, plasma, po, 7.5 mg) of 0.108 µg·h/mL. For the same compound, the AUC(0-inf) (CYP3A4; human, plasma, po, 7.5 mg) was 0.109 µg·h/mL, the Cmax (CYP3A4; human, plasma, po, 7.5 mg) was 0.0492 µg/mL and the Tmax (CYP3A4; human, plasma, po, 7.5 mg) was 0.5 h. The t1/2 (CYP3A4; [2]) was 4.81 (41) h and the “Change in exposure to midazolam with tepotinib (in words)” value (CYP3A4; tepotinib 500 mg QD orally) was “no change in exposure”.

— article PMC10447267, “Assessment of the potential of the MET inhibitor tepotinib to affect the pharmacokinetics of CYP3A4 and P-gp substrates” (Investigational New Drugs, 2023)
